Laboratory results taken from patent US10940135B2, “Paclitaxel pharmaceutical composition and pharmaceutical preparation thereof, preparation process and use thereof” (Sinotherapeutics Inc., priority 2016, dated 2021).
In brackets after ≈: the same amount, converted by molar mass.

Assays:
[1] = Apparent solubility determination in pH 6.8 phosphate buffer; format: physicochemical
Experimental: Apparent solubility determination: an excessive amount of the pharmaceutical compositions was weighed and put into a container. Phosphate buffer solution with pH6.8 was added respectively. The volume of the phosphate buffer solution was about 2/3 of volume of the container. The container was then shaken in a shaking table at 37° C. for 3 h. The resulting solution was filtered with a 0.45 μm filter membrane, then the filtrate was collected, further diluted with an appropriate amount of methanol, mixed by vortex and analyzed by HPLC.
Wherein the HPLC analysis parameters are as follows: […]

[2] = reported as 0.1˜<10 μg/ml; cited from earlier work
[3] = cited from earlier work
[4] = cited from earlier work; remark: listed apart in the source
[5] = Dissolution determination (USP II method, pH 6.8 buffer + 0.2% Tween 80); format: physicochemical; details: pH 6.8 buffer + 0.2% Tween 80, 100 rpm, 37.5° C.
Source text: Dissolution Determination:
Wherein pH6.8 represents the environment simulating the human intestinal tract (small intestine).
Analysis of dissolved sample: the solution obtained in the dissolution determination test was filtered with a 0.45 μm filter membrane, then the filtrate was collected, further diluted with an appropriate amount of methanol, mixed by vortex and analyzed by HPLC. The HPLC analysis method of the dissolved sample was the same as the HPLC analysis method mentioned above in the solubility determination.

Ratio of solubility (composition/bulk drug) [1]: 1
solubility at 3 h ([1]; aqueous buffer, thermodynamic from solid, apparent solubility, 37° C., shaken 3 h): 4 µg/mL (≈ 4.68 µM)
Dissolution % ([5]; 15 min): 13.1%
Dissolution % ([5]; 30 min): 14.5%
Dissolution % ([5]; 45 min): 14.6%
Dissolution % ([5]; 60 min): 14.8%
Dissolution % ([5]; 120 min): 14.1%
Structure (SMILES): CC(=O)O[C@H]1C(=O)[C@@]2(C)[C@H]([C@H](OC(=O)c3ccccc3)[C@]3(O)C[C@H](OC(=O)[C@H](O)[C@@H](NC(=O)c4ccccc4)c4ccccc4)C(C)=C1C3(C)C)[C@]1(OC(C)=O)CO[C@@H]1C[C@@H]2O [Bulk drug, 5β,20-epoxy-1,2α,4,7β,10β,13α-hexahydroxytaxane-11-ene-9-one-4,10-diacetate-2-benzoate-13[(2′R,3′S)—N-benzoyl-3-phenylisoserine ester]]
solubility in water [2]: lower than 10 μg/ml
oral bioavailability [3]: about 2%
pKa [4]: 11.99
